We go through twelve compounds from PubChem BioAssay (NCI).

Test systems include KM12 colon; HCT-15 colon; SW-620 colon; K-562 leukemia; HCT-116 colon; RXF 393 renal; NCI-H522 lung; BT-549 breast.
Common to all, as to assay: NCI anticancer screen, dose series, 48 h

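Following 48 hours of exposure in 96-well plates, responses at five concentrations were used to interpolate endpoints linearly. Abbreviation: GI50, concentration required for 50% inhibition of growth. TGI marks complete inhibition of growth.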

With `CCN1C/C(=C\c2cc(OC)c(OC)cc2OC)C(=O)/C(=C/c2cc(OC)c(OC)cc2OC)C1`, the GI50 was 1.57 µM with KM12 colon; 2.96 µM in the experiment on HCT-15 colon; 3.2 µM in the experiment on SW-620 colon; 3.58 µM in the experiment with K-562 leukemia; 1.84 µM in the experiment on HCT-116 colon; 2.32 µM with RXF 393 renal. The GI50 is 3.05 µM with NCI-H522 lung and 2.87 µM with BT-549 breast. For the same compound, the TGI was 3.04 µM with KM12 colon; 11.3 µM in the experiment with HCT-15 colon; 13.3 µM in the experiment with SW-620 colon; over 100 µM in the experiment with K-562 leukemia; 3.84 µM with HCT-116 colon; 7.38 µM in the experiment with RXF 393 renal. Besides, the TGI in the experiment on NCI-H522 lung came out at 12 µM; in the experiment on BT-549 breast, 8.72 µM.

With `CC1=CC(=O)C2=C(C)CCC3C(C)C(=O)OC3C12` (stereo not given), the TGI with KM12 colon, in the experiment with HCT-15 colon, with SW-620 colon, in the experiment on HCT-116 colon, in the experiment on RXF 393 renal and with NCI-H522 lung was over 100 µM in each case. Besides, in the experiment with BT-549 breast, the TGI is over 100 µM.

Consider `CCC(C)[C@H]1O[C@]2(CC[C@@H]1C)C[C@@H]1C[C@@H](C/C=C(\C)[C@@H](OC3C[C@H](OC)C(O[C@H]4C[C@H](OC)[C@@H](O)[C@H](C)O4)[C@H](C)O3)[C@@H](C)/C=C/C=C3\CO[C@@H]4[C@H](O)C(C)=C[C@@H](C(=O)O1)[C@]34O)O2` (stereo not given in full), for which the GI50 in the experiment with KM12 colon was 3.77 µM; in the experiment on HCT-15 colon it was 2.74 µM; with SW-620 colon, 3.44 µM; in the experiment with K-562 leukemia, 3.88 µM; with HCT-116 colon, 2.72 µM; in the experiment with RXF 393 renal it was 1.37 µM. In addition, in the experiment with BT-549 breast, the GI50 is 2.73 µM. Besides, the TGI was found to be 14 µM with KM12 colon; 10.2 µM in the experiment with HCT-15 colon; 13.8 µM in the experiment on SW-620 colon; 15.4 µM with K-562 leukemia; 10.7 µM in the experiment on HCT-116 colon; 2.81 µM in the experiment with RXF 393 renal. Besides, the TGI with BT-549 breast worked out at 7.3 µM.

Regarding `COC(=O)c1n[nH]c(C)c1N=NN(C)CCC#N`, the TGI with KM12 colon is 51.4 µM; with HCT-15 colon it was 32.1 µM; in the experiment with SW-620 colon, 34 µM; in the experiment with K-562 leukemia it was 60 µM; in the experiment with HCT-116 colon it was 46.3 µM; in the experiment with RXF 393 renal, 29.7 µM. Also, the values for the TGI with NCI-H522 lung and with BT-549 breast were 25.1 µM and 28.6 µM, respectively.

As to `CC(C)C1=CC(=O)C(C)(C2C(O)CC3(C)C4CC=C5C(CCC(OC6OC(CO)C(O)C(O)C6OC6OC(C)C(O)C(O)C6O)C5(C)C)C4(C)C(=O)CC23C)O1` (stereo not given), the TGI with KM12 colon, in the experiment with HCT-15 colon, with SW-620 colon, in the experiment on K-562 leukemia, with HCT-116 colon and in the experiment on RXF 393 renal was over 100 µM throughout. Also, the TGI with NCI-H522 lung and in the experiment on BT-549 breast was over 100 µM each time.

In the case of `COc1ccc2c(c1OC)C[C@@H]1c3c(cc4c(c3-2)OCO4)CCN1C`, the TGI in the experiment on KM12 colon is over 100 µM; in the experiment on HCT-15 colon it was over 100 µM; with SW-620 colon it was over 100 µM; with K-562 leukemia, 56.6 µM; in the experiment on HCT-116 colon, 47.3 µM; with RXF 393 renal, 66.4 µM. Also, the TGI is 62.9 µM in the experiment with NCI-H522 lung and over 100 µM with BT-549 breast.

For `CC(C)(C)c1ccc(S(=O)(=O)Oc2ccc3c4c(c(=O)oc3c2)CCCCC4)cc1`, the GI50 was over 100 µM in the experiment on KM12 colon; 7.92 µM with HCT-15 colon; 85.6 µM with SW-620 colon; 7.06 µM in the experiment on HCT-116 colon; 17.8 µM in the experiment on RXF 393 renal; 19.2 µM in the experiment with NCI-H522 lung. Also, in the experiment on BT-549 breast, the GI50 was 17.7 µM. In addition, the TGI with KM12 colon is over 100 µM; in the experiment on HCT-15 colon it was over 100 µM; with SW-620 colon, over 100 µM; in the experiment with HCT-116 colon, over 100 µM; in the experiment with RXF 393 renal, 63.5 µM; in the experiment on NCI-H522 lung, over 100 µM. In addition, in the experiment with BT-549 breast, the TGI is over 100 µM.

Take `CCOC(=O)C1Cc2c(cc3c4c(cccc24)N(C(C)=O)C3)N(C)C1` (stereo not given): the TGI with KM12 colon is over 100 µM; in the experiment with HCT-15 colon it was over 100 µM; in the experiment with SW-620 colon it was over 100 µM; in the experiment with K-562 leukemia, over 100 µM; in the experiment with HCT-116 colon, over 100 µM; in the experiment with RXF 393 renal, 44.7 µM. Besides, in the experiment on NCI-H522 lung, the TGI amounted to 1.3 µM.

`CCCCCCCCCCCCOC1C(CNC(=O)C2OC3OC(C)(C)OC3C2NC(=O)Nc2ccc(CC(=O)OC)cc2)OC2OC(C)(C)OC21` (stereo not given): the GI50 with KM12 colon is over 100 µM; in the experiment with HCT-15 colon, over 100 µM; in the experiment with SW-620 colon it was over 100 µM; with HCT-116 colon, 12.5 µM; in the experiment on NCI-H522 lung, over 100 µM; in the experiment with BT-549 breast it was over 100 µM. In addition, the TGI in the experiment with KM12 colon, in the experiment with HCT-15 colon, with SW-620 colon, in the experiment on HCT-116 colon, in the experiment on NCI-H522 lung and in the experiment on BT-549 breast was over 100 µM throughout.

Turning to `Cc1cc(O)c(=O)cc2c1C[C@H]1CC(C)(C)/C=C/C[C@]3(C)Oc4cc(=O)c(O)cc(C)c4C[C@H]3C[C@H](O)[C@@]1(C)O2`, the GI50 with KM12 colon was under 0.01 µM; with HCT-15 colon, under 0.01 µM; in the experiment on SW-620 colon, under 0.01 µM; in the experiment with HCT-116 colon, under 0.01 µM; in the experiment with NCI-H522 lung, 0.0192 µM; in the experiment with BT-549 breast it was 0.0319 µM. The TGI is over 100 µM in the experiment with KM12 colon; over 100 µM with HCT-15 colon; over 100 µM in the experiment on SW-620 colon; over 100 µM in the experiment on HCT-116 colon; 0.0853 µM in the experiment on NCI-H522 lung; 4.55 µM with BT-549 breast.

Take `COc1ccc(C(c2cc(OC)c(OC)c(OC)c2)n2ccnc2)cc1O` (stereo not given): the GI50 with KM12 colon was 0.389 µM; in the experiment on HCT-15 colon it was 0.464 µM; in the experiment on SW-620 colon it was 0.387 µM; in the experiment on K-562 leukemia, 0.225 µM; in the experiment with HCT-116 colon it was 0.249 µM; with NCI-H522 lung, 0.247 µM. For the same compound, the TGI in the experiment with KM12 colon was over 100 µM; in the experiment on HCT-15 colon, over 100 µM; with SW-620 colon it was over 100 µM; in the experiment with K-562 leukemia it was over 100 µM; in the experiment on HCT-116 colon it was over 100 µM; in the experiment with NCI-H522 lung, 0.76 µM.

As for `O=C(Oc1cccc2cccnc12)c1cc2c(cc1Cl)SC(N(c1ccc(F)cc1)S(=O)(=O)c1ccc(Br)s1)=NS2(=O)=O`, the GI50 in the experiment on KM12 colon was 44.2 µM; with HCT-15 colon, 25.9 µM; in the experiment on SW-620 colon, 25.3 µM; in the experiment with K-562 leukemia it was 29.1 µM; with HCT-116 colon, 19.3 µM; with NCI-H522 lung, 19.6 µM. In addition, the TGI was over 100 µM in the experiment on KM12 colon; over 100 µM with HCT-15 colon; over 100 µM in the experiment on SW-620 colon; over 100 µM with K-562 leukemia; 55 µM with HCT-116 colon; 48.3 µM with NCI-H522 lung.
